The assay has as its system purified astrocyte cultures. The assay can be described thus: CXCL1 addition to purified spinal cord astrocyte cultures, CSPG by immunocytochemistry and dot blot. It counts as cell-based. The note with it: CXCL1 0.5 ng/ml, 3 days. The method, then: Cells were treated with CXCL1 (0.5 ng/ml) for 3 days and assayed for CSPG deposition onto substrate by immunocytochemistry and released into medium. […] GFAP (red), CSPG (green) (FIG. 34) For the culture studies, cultures of spinal cord astrocytes were assayed for basal levels of mRNA expression of CXCL1 and CXCR2 by RT-PCR (FIG. 33). The effect of 3 day CXCL1 protein addition (0.5 ng/ml) on CSPG protein expression was conducted on spinal cord astrocyte cultures as well as by immunocytochemistry and dot blot assays to analyze secreted and bound CSPG (FIG. 34).

Take “CXCL1: soluble secreted chemoattractive cytokine of the ELR positive family of CXC chemokines; preferred receptor CXCR2”: the “CSPG expression (deposition onto substrate, immunocytochemistry)” value was “induces CSPG expression”; the “CSPG released into medium (dot blot)” value is reported as “increased CSPG”; the astrocyte morphology entry is “changes morphology”.
